Measured values as given in ChEMBL document CHEMBL1275357, “Inhibition of Helicobacter pylori aminoacyl-tRNA amidotransferase by chloramphenicol analogs” (Bioorg Med Chem, 2010).

Assay: Competitive inhibition of Helicobacter pylori aminoacyl-tRNA […] GatCAB

Structure (SMILES)	Ki [µM]
O=C(N[C@H](CO)[C@H](O)c1ccc([N+](=O)[O-])cc1)C(Cl)Cl [CHLORAMPHENICOL]	1850
CS(=O)(=O)CC[C@H](N)C(=O)N[C@@H](CO)[C@@H](O)c1ccc([N+](=O)[O-])cc1	160
CS(=O)(=O)CC[C@H](N)C(=O)N[C@H](CO)[C@H](O)c1ccc(S(C)(=O)=O)cc1	120
CN(C)c1ncnc2c1ncn2[C@@H]1O[C@H](CO)[C@@H](NC(=O)[C@@H](N)CCS(C)(=O)=O)[C@H]1O	4

Other lines, results leading:

Ki [µM]	Structure (SMILES)
370	CS(=O)(=O)CC[C@H](N)C(=O)N[C@@H](CO)[C@H](O)c1ccc([N+](=O)[O-])cc1
27	CS(=O)(=O)CC[C@H](N)C(=O)N[C@H](CO)[C@H](O)c1ccc([N+](=O)[O-])cc1
2800	CS(=O)(=O)CC[C@H](N)C(=O)N[C@H](CO)[C@@H](O)c1ccc([N+](=O)[O-])cc1
400	CS(=O)(=O)CC[C@H](N)C(=O)N[C@H](CO)[C@H](O)c1ccccc1
